# Laboratory results from PubChem BioAssay (NCI).
#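 Compound exposure: 48 hours, 5 concentrations, 96-well plates. At the TGI there is no net growth.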
# Assays:
# Test in all cases: growth of human tumour cells (NCI), 48 h
# SNB-75 CNS = test system: SNB-75 CNS
# UACC-257 melanoma = test system: UACC-257 melanoma
# SNB-19 CNS = test system: SNB-19 CNS
# HT29 colon = test system: HT29 colon
# ACHN renal = test system: ACHN renal
# HOP-18 NSCLC = test system: HOP-18 NSCLC
# OVCAR-4 ovarian = test system: OVCAR-4 ovarian
# SK-OV-3 ovarian = test system: SK-OV-3 ovarian
# SW-620 colon = test system: SW-620 colon
# SF-539 CNS = test system: SF-539 CNS
# COLO 205 colon = test system: COLO 205 colon
# M19-MEL melanoma = test system: M19-MEL melanoma
# DMS 273 small cell lung = test system: DMS 273 small cell lung
# UACC-62 melanoma = test system: UACC-62 melanoma
# LXFL 529 NSCLC = test system: LXFL 529 NSCLC
# RXF 393 renal = test system: RXF 393 renal
# LOX IMVI melanoma = test system: LOX IMVI melanoma
# OVCAR-5 ovarian = test system: OVCAR-5 ovarian
# SNB-78 CNS = test system: SNB-78 CNS
# U251 CNS = test system: U251 CNS
# SF-268 CNS = test system: SF-268 CNS
# UO-31 renal = test system: UO-31 renal
# K-562 leukemia = test system: K-562 leukemia
# SK-MEL-28 melanoma = test system: SK-MEL-28 melanoma
# A498 renal = test system: A498 renal
# SF-295 CNS = test system: SF-295 CNS
# MALME-3M melanoma = test system: MALME-3M melanoma
# HCT-116 colon = test system: HCT-116 colon
# HOP-92 NSCLC = test system: HOP-92 NSCLC
# NCI-H23 lung = test system: NCI-H23 lung
# 786-0 renal = test system: 786-0 renal
# DLD-1 colon = test system: DLD-1 colon
# M14 melanoma = test system: M14 melanoma
# CCRF-CEM leukemia = test system: CCRF-CEM leukemia
# KM12 colon = test system: KM12 colon
# HCC-2998 colon = test system: HCC-2998 colon
# TK-10 renal = test system: TK-10 renal
# OVCAR-3 ovarian = test system: OVCAR-3 ovarian
# SN12C renal = test system: SN12C renal
# SK-MEL-5 melanoma = test system: SK-MEL-5 melanoma
# OVCAR-8 ovarian = test system: OVCAR-8 ovarian
# NCI-H460 lung = test system: NCI-H460 lung
# A549 NSCLC = test system: A549 NSCLC
# DMS 114 small cell lung = test system: DMS 114 small cell lung
# CAKI-1 renal = test system: CAKI-1 renal
# HCT-15 colon = test system: HCT-15 colon
# SR leukemia = test system: SR leukemia
# RPMI-8226 leukemia = test system: RPMI-8226 leukemia
# HOP-62 NSCLC = test system: HOP-62 NSCLC
# EKVX NSCLC = test system: EKVX NSCLC
# NCI-H226 lung = test system: NCI-H226 lung
# IGROV1 ovarian = test system: IGROV1 ovarian
# KM20L2 colon = test system: KM20L2 colon
# MOLT-4 leukemia = test system: MOLT-4 leukemia
# NCI-H522 lung = test system: NCI-H522 lung
# HL-60(TB) leukemia = test system: HL-60(TB) leukemia
# SK-MEL-2 melanoma = test system: SK-MEL-2 melanoma
# XF 498 CNS = test system: XF 498 CNS
structure (smiles),measurement,setting,value
COC(=O)C1=C(c2cc(OC)c(OC)c(OC)c2)OC(c2ccc3c(c2)OCO3)C1 (stereo unspecified),TGI,SNB-75 CNS,> 100 µM
same,TGI,UACC-257 melanoma,> 100 µM
same,TGI,SNB-19 CNS,> 100 µM
same,TGI,HT29 colon,97.5 µM
same,TGI,ACHN renal,> 100 µM
same,TGI,HOP-18 NSCLC,> 100 µM
same,TGI,OVCAR-4 ovarian,> 100 µM
same,TGI,SK-OV-3 ovarian,> 100 µM
same,TGI,SW-620 colon,67.3 µM
same,TGI,SF-539 CNS,> 100 µM
same,TGI,COLO 205 colon,26.8 µM
same,TGI,M19-MEL melanoma,> 100 µM
same,TGI,DMS 273 small cell lung,> 100 µM
same,TGI,UACC-62 melanoma,35.5 µM
same,TGI,LXFL 529 NSCLC,90 µM
same,TGI,RXF 393 renal,> 100 µM
same,TGI,LOX IMVI melanoma,> 100 µM
same,TGI,OVCAR-5 ovarian,> 100 µM
same,TGI,SNB-78 CNS,> 100 µM
same,TGI,U251 CNS,> 100 µM
same,TGI,SF-268 CNS,> 100 µM
same,TGI,UO-31 renal,> 100 µM
same,TGI,K-562 leukemia,> 100 µM
same,TGI,SK-MEL-28 melanoma,> 100 µM
same,TGI,A498 renal,52.2 µM
same,TGI,SF-295 CNS,> 100 µM
same,TGI,MALME-3M melanoma,> 100 µM
same,TGI,HCT-116 colon,> 100 µM
same,TGI,HOP-92 NSCLC,> 100 µM
same,TGI,NCI-H23 lung,98.9 µM
same,TGI,786-0 renal,> 100 µM
same,TGI,DLD-1 colon,> 100 µM
same,TGI,M14 melanoma,> 100 µM
same,TGI,CCRF-CEM leukemia,> 100 µM
same,TGI,KM12 colon,> 100 µM
same,TGI,HCC-2998 colon,> 100 µM
same,TGI,TK-10 renal,> 100 µM
same,TGI,OVCAR-3 ovarian,81.7 µM
same,TGI,SN12C renal,> 100 µM
same,TGI,SK-MEL-5 melanoma,> 100 µM
same,TGI,OVCAR-8 ovarian,> 100 µM
same,TGI,NCI-H460 lung,> 100 µM
same,TGI,A549 NSCLC,> 100 µM
same,TGI,DMS 114 small cell lung,45.7 µM
same,TGI,CAKI-1 renal,> 100 µM
same,TGI,HCT-15 colon,> 100 µM
same,TGI,SR leukemia,62.8 µM
same,TGI,RPMI-8226 leukemia,> 100 µM
same,TGI,HOP-62 NSCLC,> 100 µM
same,TGI,EKVX NSCLC,99.2 µM
same,TGI,NCI-H226 lung,> 100 µM
same,TGI,IGROV1 ovarian,29.5 µM
same,TGI,KM20L2 colon,58.2 µM
same,TGI,MOLT-4 leukemia,> 100 µM
COc1ccccc1-n1c(C)nc2ccccc2c1=O,TGI,SNB-75 CNS,> 100 µM
same,TGI,UACC-257 melanoma,> 100 µM
same,TGI,SNB-19 CNS,> 100 µM
same,TGI,HT29 colon,> 100 µM
same,TGI,ACHN renal,> 100 µM
same,TGI,HOP-18 NSCLC,> 100 µM
same,TGI,OVCAR-4 ovarian,> 100 µM
same,TGI,SK-OV-3 ovarian,> 100 µM
same,TGI,SW-620 colon,> 100 µM
same,TGI,SF-539 CNS,> 100 µM
same,TGI,COLO 205 colon,> 100 µM
same,TGI,M19-MEL melanoma,> 100 µM
same,TGI,DMS 273 small cell lung,> 100 µM
same,TGI,NCI-H522 lung,> 100 µM
same,TGI,UACC-62 melanoma,> 100 µM
same,TGI,LXFL 529 NSCLC,> 100 µM
same,TGI,RXF 393 renal,> 100 µM
same,TGI,HL-60(TB) leukemia,> 100 µM
same,TGI,LOX IMVI melanoma,> 100 µM
same,TGI,OVCAR-5 ovarian,> 100 µM
same,TGI,SNB-78 CNS,> 100 µM
same,TGI,U251 CNS,> 100 µM
same,TGI,SF-268 CNS,> 100 µM
same,TGI,UO-31 renal,> 100 µM
same,TGI,K-562 leukemia,> 100 µM
same,TGI,SK-MEL-28 melanoma,> 100 µM
same,TGI,A498 renal,> 100 µM
same,TGI,SF-295 CNS,> 100 µM
same,TGI,MALME-3M melanoma,> 100 µM
same,TGI,HCT-116 colon,> 100 µM
same,TGI,HOP-92 NSCLC,> 100 µM
same,TGI,NCI-H23 lung,> 100 µM
same,TGI,786-0 renal,> 100 µM
same,TGI,DLD-1 colon,> 100 µM
same,TGI,SK-MEL-2 melanoma,> 100 µM
same,TGI,M14 melanoma,> 100 µM
same,TGI,CCRF-CEM leukemia,> 100 µM
same,TGI,KM12 colon,> 100 µM
same,TGI,HCC-2998 colon,> 100 µM
same,TGI,TK-10 renal,> 100 µM
same,TGI,OVCAR-3 ovarian,> 100 µM
same,TGI,SN12C renal,> 100 µM
same,TGI,SK-MEL-5 melanoma,> 100 µM
same,TGI,OVCAR-8 ovarian,> 100 µM
same,TGI,NCI-H460 lung,> 100 µM
same,TGI,A549 NSCLC,> 100 µM
same,TGI,DMS 114 small cell lung,> 100 µM
same,TGI,CAKI-1 renal,> 100 µM
same,TGI,HCT-15 colon,> 100 µM
same,TGI,SR leukemia,> 100 µM
same,TGI,HOP-62 NSCLC,> 100 µM
same,TGI,EKVX NSCLC,> 100 µM
same,TGI,NCI-H226 lung,> 100 µM
same,TGI,IGROV1 ovarian,> 100 µM
same,TGI,KM20L2 colon,> 100 µM
same,TGI,MOLT-4 leukemia,> 100 µM
C=CCOC(C)n1c(C)c(Br)c(=O)[nH]c1=O (stereo unspecified),TGI,SNB-75 CNS,> 100 µM
same,TGI,UACC-257 melanoma,> 100 µM
same,TGI,SNB-19 CNS,> 100 µM
same,TGI,HT29 colon,> 100 µM
same,TGI,ACHN renal,> 100 µM
same,TGI,SK-OV-3 ovarian,> 100 µM
same,TGI,SW-620 colon,> 100 µM
same,TGI,SF-539 CNS,> 100 µM
same,TGI,COLO 205 colon,> 100 µM
same,TGI,M19-MEL melanoma,> 100 µM
same,TGI,DMS 273 small cell lung,> 100 µM
same,TGI,NCI-H522 lung,> 100 µM
same,TGI,UACC-62 melanoma,> 100 µM
same,TGI,LXFL 529 NSCLC,> 100 µM
same,TGI,RXF 393 renal,> 100 µM
same,TGI,HL-60(TB) leukemia,> 100 µM
same,TGI,LOX IMVI melanoma,> 100 µM
same,TGI,OVCAR-5 ovarian,> 100 µM
same,TGI,XF 498 CNS,> 100 µM
same,TGI,U251 CNS,> 100 µM
same,TGI,SF-268 CNS,> 100 µM
same,TGI,UO-31 renal,> 100 µM
same,TGI,SK-MEL-28 melanoma,> 100 µM
same,TGI,A498 renal,> 100 µM
same,TGI,SF-295 CNS,> 100 µM
same,TGI,MALME-3M melanoma,> 100 µM
same,TGI,HCT-116 colon,> 100 µM
same,TGI,HOP-92 NSCLC,> 100 µM
same,TGI,NCI-H23 lung,> 100 µM
same,TGI,786-0 renal,> 100 µM
same,TGI,DLD-1 colon,> 100 µM
same,TGI,SK-MEL-2 melanoma,> 100 µM
same,TGI,CCRF-CEM leukemia,> 100 µM
same,TGI,KM12 colon,> 100 µM
same,TGI,HCC-2998 colon,> 100 µM
same,TGI,TK-10 renal,> 100 µM
same,TGI,OVCAR-3 ovarian,> 100 µM
same,TGI,SN12C renal,> 100 µM
same,TGI,SK-MEL-5 melanoma,> 100 µM
same,TGI,OVCAR-8 ovarian,> 100 µM
same,TGI,NCI-H460 lung,> 100 µM
same,TGI,A549 NSCLC,> 100 µM
same,TGI,DMS 114 small cell lung,> 100 µM
same,TGI,CAKI-1 renal,> 100 µM
same,TGI,HCT-15 colon,> 100 µM
same,TGI,SR leukemia,> 100 µM
same,TGI,EKVX NSCLC,> 100 µM
same,TGI,NCI-H226 lung,> 100 µM
same,TGI,IGROV1 ovarian,> 100 µM
same,TGI,KM20L2 colon,> 100 µM
same,TGI,MOLT-4 leukemia,> 100 µM
